target: purified PARP protein (Homo sapiens, UniProt P09874); experiment: PARP Enzyme Inhibition Assay; type: biochemical; conditions: [32P]NAD+ incorporation, 500 μM NAD+, 25° C.; competitive inhibition fit; read-out: Inhibition Constant Ki
Experimental: The PARP enzyme-inhibiting activities of test compounds were assayed as described by Simonin et al. (J. Biol. Chem. (1993), 268:8529-8535) and Marsischky et al. (J. Biol. Chem. (1995), 270:3247-3254) with minor modifications as follows. Samples (50 μL) containing 20 nM purified PARP protein, 10 μg/mL DNAse I-activated calf thymus DNA (sigma), 500 μM NAD^+, 0.5 μCi [^32P]NAD^+, 2% DMSO, and various concentrations of test compounds were incubated in sample buffer (50 mM Tris pH 8.0, 10 mM MgCl2, 1 mM tris(carboxyethyl)phosphine HCl) at 25° C. for 5 minutes. Under these conditions, the reaction rate was linear for times up to 10 minutes. The reaction was stopped by the addition of an equal volume of ice-cold 40% trichloroacetic acid to the samples, which were then incubated on ice for 15 minutes. The samples were then transferred to a Bio-Dot microfiltration apparatus (BioRad), filtered through Whatman GF/C glass-fiber filter paper, washed 3 times with 150 μL of wash buffer (5% trichloroacetic acid, 1% inorganic pyrophosphate), and dried. [^32P]ADP-Ribose incorporation into the acid-insoluble material was quantitated using a PhosphorImager (Molecular Dynamics) and ImageQuant software. Inhibition constants (Ki) were calculated by non-linear regression analyses using the velocity equation for competitive inhibition (Segel, Enzyme Kinetics: Behavior and Analysis of Rapid Equilibrium and Steady-State Enzyme Systems, John Wiley & Sons, Inc., New York (1975), 100-125). In the case of tight-binding inhibitors, 5 nM enzyme was used and the reaction was incubated at 25° C. for 25 minutes. Ki values for tight-binding inhibitors were calculated using the equation described by Sculley et al. (Biochim. Biophys. Acta (11986), 874:44-53).

purified PARP protein, sequence (P09874 whole entry): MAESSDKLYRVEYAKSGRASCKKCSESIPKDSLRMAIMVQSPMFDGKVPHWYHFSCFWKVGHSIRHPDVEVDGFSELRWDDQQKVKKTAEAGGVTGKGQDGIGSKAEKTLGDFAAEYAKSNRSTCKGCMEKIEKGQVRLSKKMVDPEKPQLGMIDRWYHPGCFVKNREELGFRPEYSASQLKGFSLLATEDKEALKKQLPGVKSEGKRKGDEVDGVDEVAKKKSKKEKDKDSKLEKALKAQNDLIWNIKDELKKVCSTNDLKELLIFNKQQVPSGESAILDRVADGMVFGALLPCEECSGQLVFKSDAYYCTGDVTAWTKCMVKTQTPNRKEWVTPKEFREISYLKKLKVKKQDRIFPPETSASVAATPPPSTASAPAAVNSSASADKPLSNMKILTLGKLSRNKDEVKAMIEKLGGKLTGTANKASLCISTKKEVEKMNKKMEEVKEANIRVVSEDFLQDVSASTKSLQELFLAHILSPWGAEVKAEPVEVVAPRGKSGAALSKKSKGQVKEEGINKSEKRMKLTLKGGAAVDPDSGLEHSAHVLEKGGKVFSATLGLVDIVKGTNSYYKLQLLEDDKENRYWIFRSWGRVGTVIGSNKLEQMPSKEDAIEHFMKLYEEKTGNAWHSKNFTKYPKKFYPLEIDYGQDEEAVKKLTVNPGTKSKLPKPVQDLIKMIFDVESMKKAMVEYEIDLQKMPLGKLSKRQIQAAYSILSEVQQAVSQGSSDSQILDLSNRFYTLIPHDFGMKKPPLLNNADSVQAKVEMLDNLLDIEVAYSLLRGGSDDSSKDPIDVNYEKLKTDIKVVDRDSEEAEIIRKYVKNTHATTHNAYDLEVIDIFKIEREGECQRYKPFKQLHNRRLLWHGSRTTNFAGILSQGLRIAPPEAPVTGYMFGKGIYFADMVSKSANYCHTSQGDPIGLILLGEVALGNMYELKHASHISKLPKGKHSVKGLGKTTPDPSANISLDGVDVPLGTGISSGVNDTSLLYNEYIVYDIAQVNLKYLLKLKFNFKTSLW

SMILES | Ki
NC(=O)c1cccc2[nH]c(CSc3nc4ccccc4s3)nc12 [Compound 2, 2-(Benzothiazol-2-ylsulfanylmethyl)-1H-benzimidazole-4 carboxylic Acid Amide] | 12 nM
NC(=O)c1cccc2[nH]c(CSc3ccc([N+](=O)[O-])cc3)nc12 [Compound 3, 2-(4-Nitro-phenylsulfanylmethyl)-1H-benzimidazole-4-carboxylic Acid Amide] | 8 nM
NC(=O)c1cccc2[nH]c(CSc3ccc(O)cc3)nc12 [Compound 4, 2-(4-Hydroxy-phenylsulfanylmethyl)-1H-benzimidazole-4-carboxylic Acid Amide] | 13 nM
CC(=O)Nc1nnc(SCc2nc3c(C(N)=O)cccc3[nH]2)s1 [Compound 5, 2-(5-Acetylamino-[1,3,4]thiadiazol-2-ylsulfanylmethyl)-1H-benzimidazole-4-carboxylic Acid Amide] | 11 ± 1 nM
NC(=O)c1cccc2[nH]c(CSc3nnc(-c4ccccc4)o3)nc12 [Compound 6, 2-(5-Phenyl-[1,3,4]oxadiazol-2-ylsulfanylmethyl)-1H-benzimidazole-4-carboxylic Acid Amide] | 102 nM
COc1ccc(SCc2nc3c(C(N)=O)cccc3[nH]2)cc1 [Compound 8, 2-(4-Methoxy-phenylsulfanylmethyl)-1H-benzimidazole-4-carboxylic Acid Amide] | 9 ± 1 nM
NC(=O)c1cccc2[nH]c(CSc3ccc(N)cc3)nc12 [Compound 10, 2-(4-Amino-phenylsulfanylmethyl)-1H-benzimidazole-4-carboxylic Acid Amide] | 17 ± 1 nM
CCCCCCCSCc1nc2c(C(N)=O)cccc2[nH]1 [Compound 11, 2-Heptylsulfanylmethyl-1H-benzimidazole-4-carboxylic Acid Amide] | 33 ± 6 nM
CN(C)c1ccc(SCc2nc3c(C(N)=O)cccc3[nH]2)cc1 [Compound 12, 2-(4-Dimethylamino-phenylsulfanylmethyl)-1H-benzimidazole-4-carboxylic Acid Amide] | 91 ± 3 nM
NC(=O)c1cccc2[nH]c(CSc3ccc(C(F)(F)F)cc3)nc12 [Compound 13, 2-(4-Trifluoromethyl-phenylsulfanylmethyl)-1H-benzimidazole-4-carboxylic Acid Amide] | 39 ± 5 nM
CSc1ccc(SCc2nc3c(C(N)=O)cccc3[nH]2)cc1 [Compound 14, 2-(4-Methylsulfanyl-phenylsulfanylmethyl)-1H-benzimidazole-4-carboxylic Acid Amide] | 11 ± 2 nM
CN(Cc1nc2c(C(N)=O)cccc2[nH]1)Cc1ccccc1O [Compound 15] | 45 ± 3 nM
NC(=O)c1cccc2[nH]c(CNCCCN3CCCC3)nc12 [Compound 16, 2-[(3-Pyrrolidin-1-yl-propylamino)-methyl]-1H-benzimidazole-4-carboxylic Acid Amide] | 15 ± 3 nM
CN(Cc1nc2c(C(N)=O)cccc2[nH]1)c1ccccc1 [Compound 20, 2-[(Methyl-phenyl-amino)-methyl]-1H-benzimidazole-4-carboxylic Acid Amide] | 14 ± 3 nM

Further lines, results first:

Ki | SMILES
9 ± 2 nM | NC(=O)c1cccc2[nH]c(CNC3CN4CCC3CC4)nc12 (stereo not shown) [Compound 21, 2-[(1-Aza-bicyclo[2.2.2]oct-3-ylamino)-methyl]-1H-benzimidazole-4-carboxylic Acid Amide]
17 nM | NC(=O)c1cccc2[nH]c(CN3CCC(N)C3)nc12 (stereo not shown) [Compound 22, 2-(3-Amino-pyrrolidin-1-ylmethyl)-1H-benzimidazole-4-carboxylic Acid Amide]
14 nM | CNCCN(C)Cc1nc2c(C(N)=O)cccc2[nH]1 [Compound 23, 2-{[Methyl-(2-methylamino-ethyl)-amino]-methyl}-1H-benzimidazole-4-carboxylic Acid Amide]
36 ± 2 nM | CCC(=O)Nc1ccc(SCc2nc3c(C(N)=O)cccc3[nH]2)cc1 [Compound 24, 2-(4-Propionylamino-phenylsulfanylmethyl)-1H-benzimidazole-4-carboxylic Acid Amide]
39 nM | NC(=O)c1cccc2[nH]c(CSc3ccc(NC(=O)OCc4ccccc4)cc3)nc12 [Compound 25]
38 ± 1 nM | COC(=O)Nc1ccc(SCc2nc3c(C(N)=O)cccc3[nH]2)cc1 [Compound 26]
61 ± 10 nM | CCCCCCCS(=O)(=O)Cc1nc2c(C(N)=O)cccc2[nH]1 [Compound 31, 2-(Heptane-1-sulfonylmethyl)-1H-benzimidazole-4-carboxylic Acid Amide]
5 ± 1 nM | CS(=O)(=O)c1ccc(S(=O)(=O)Cc2nc3c(C(N)=O)cccc3[nH]2)cc1 [Compound 35, 2-(4-Methanesulfonyl-benzenesulfonylmethyl)-1H-benzimidazole-4-carboxylic Acid Amide]
17.8 ± 0.8 nM | CCC(=O)Nc1ccc(S(=O)(=O)Cc2nc3c(C(N)=O)cccc3[nH]2)cc1 [Compound 36, 2-(4-Propionylamino-benzenesulfonylmethyl)-1H-benzimidazole-4-carboxylic Acid Amide]
28.5 ± 0.5 nM | COC(=O)Nc1ccc(S(=O)(=O)Cc2nc3c(C(N)=O)cccc3[nH]2)cc1 [Compound 37, [4-(4-Carbamoyl-1H-benzoimidazol-2-ylmethanesulfonyl)-phenyl]-carbamic Acid Methyl Ester]
29.5 ± 2.5 nM | NC(=O)Nc1ccc(S(=O)(=O)Cc2nc3c(C(N)=O)cccc3[nH]2)cc1 [Compound 39, 2-(4-Ureido-benzenesulfonylmethyl)-1H-benzoimidazole-4-carboxylic Acid Amide]
70 ± 15 nM | NC(=O)c1cccc2[nH]c(SCc3ccccc3)nc12 [Compound 40, 2-Benzylsulfanyl-1H-benzimidazole-4-carboxylic Acid Amide]
800 nM | NC(=O)c1cccc2[nH]c(S(=O)(=O)Cc3ccccc3)nc12 [Compound 41, 2-Phenylmethansulfonyl-1H-benzimidazole-4-carboxylic Acid Amide]
6.5 ± 1.5 nM | COc1ccc(CSc2nc3c(C(N)=O)cccc3[nH]2)cc1 [Compound 43, 2-(4-Methoxy-benzylsulfanyl)-1H-benzimidazole-4-carboxylic Acid Amide]
4.7 ± 0.2 nM | NC(=O)c1cccc2[nH]c(SCc3ccc([N+](=O)[O-])cc3)nc12 [Compound 44, 2-(4-Nitro-benzylsulfanyl)-1H-benzimidazole-4-carboxylic Acid Amide]
48 ± 1 nM | NC(=O)c1cccc2[nH]c(CSCCN3CCOCC3)nc12 [Compound 45, 2-(2-Morpholin-4-yl-ethylsulfanylmethyl)-1H-benzimidazole-4-carboxylic Acid Amide]
33 ± 3 nM | NC(=O)c1cccc2[nH]c(CSCCN3CCc4ccccc4C3)nc12 [Compound 46, 2-[2-(3,4-Dihydro-1H-isoquinolin-2-yl)-ethylsulfanylmethyl]-1H-benzoimidazole-4-carboxylic Acid Amide]
93 ± 10 nM | NC(=O)c1cccc2c1nc1n2CCSC1 [Compound 47, 3,4-Dihydro-1H-2-thia-4a,9-diaza-fluorene-8-carboxylic Acid Amide]
24 ± 3 nM | NC(=O)c1cccc2[nH]c(CS(=O)(=O)c3ccc(N4C(=O)CNC4=O)cc3)nc12 [Compound 51, 2-[4-(2,5-Dioxo-imidazolidin-1-yl)-benzenesulfonylmethyl]-1H-benzoimidazole-4-carboxylic Acid Amide]
27 ± 4 nM | CSc1nc2c(C(N)=O)cccc2[nH]1 [Compound 52, 2-Methylsulfanyl-3H-benzoimidazolc-4-carboxylic Acid Amide]

Reference: patent US20040034078A1 (Agouron Pharmaceuticals, Inc., priority 2002, published 2004)
